Tests used:
Experiment in all cases: GR value, 72 h; higher = faster growth (1 = untreated, <0 = killing);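 also: breast cancer and non-malignant breast epithelial lines, nine half-log doses, viable cells counted by Hoechst and LIVE/DEAD dye imaging versus time-zero plates and DMSO controls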
[1] = compound: CCN1CCN(Cc2ccc(Nc3ncc(F)c(-c4cc(F)c5nc(C)n(C(C)C)c5c4)n3)nc2)CC1
THZ1 = compound: CN(C)C/C=C/C(=O)Nc1ccc(C(=O)Nc2cccc(Nc3ncc(Cl)c(-c4c[nH]c5ccccc45)n3)c2)cc1 [THZ1]
BSJ-03-123 = compound: CC(=O)c1c(C)c2cnc(Nc3ccc(N4CCN(CCOCCOCCOCCNC(=O)COc5cccc6c5C(=O)N(C5CCC(=O)NC5=O)C6=O)CC4)cn3)nc2n(C2CCCC2)c1=O [BSJ-03-123]
LEE011/Ribociclib = compound: CN(C)C(=O)c1cc2cnc(Nc3ccc(N4CCNCC4)cn3)nc2n1C1CCCC1 [LEE011/Ribociclib]
YKL-5-124 = compound: C=CC(=O)Nc1ccc(C(=O)Nc2[nH]nc3c2CN(C(=O)N[C@H](CN(C)C)c2ccccc2)C3(C)C)cc1 [YKL-5-124]

## MDAMB231
[1]; 0.001 µM
  GR value: 0.942 GR
[1]; 0.003162 µM
  GR value: 0.859 GR
[1]; 0.01 µM
  GR value: 0.699 GR
[1]; 0.03162 µM
  GR value: 0.513 GR
[1]; 0.1 µM
  GR value: 0.289 GR
[1]; 0.3162 µM
  GR value: 0.169 GR
[1]; 1 µM
  GR value: 0.0774 GR
[1]; 3.162 µM
  GR value: -0.187 GR
[1]; 10 µM
  GR value: -0.492 GR
THZ1; 0.0001 µM
  GR value: 1.02 GR
THZ1; 0.0003162 µM
  GR value: 0.992 GR
THZ1; 0.001 µM
  GR value: 0.993 GR
THZ1; 0.003162 µM
  GR value: 1.03 GR
THZ1; 0.01 µM
  GR value: 0.972 GR
THZ1; 0.03162 µM
  GR value: 0.701 GR
THZ1; 0.1 µM
  GR value: 0.26 GR
THZ1; 0.3162 µM
  GR value: -0.0565 GR
THZ1; 1 µM
  GR value: -0.5 GR
BSJ-03-123; 0.001 µM
  GR value: 0.926 GR
BSJ-03-123; 0.003162 µM
  GR value: 0.889 GR
BSJ-03-123; 0.01 µM
  GR value: 0.828 GR
BSJ-03-123; 0.03162 µM
  GR value: 0.779 GR
BSJ-03-123; 0.1 µM
  GR value: 0.69 GR
BSJ-03-123; 0.3162 µM
  GR value: 0.644 GR
BSJ-03-123; 1 µM
  GR value: 0.466 GR
BSJ-03-123; 3.162 µM
  GR value: 0.478 GR
BSJ-03-123; 10 µM
  GR value: -0.156 GR
LEE011/Ribociclib; 0.001 µM
  GR value: 0.792 GR
LEE011/Ribociclib; 0.003162 µM
  GR value: 0.835 GR
LEE011/Ribociclib; 0.01 µM
  GR value: 0.747 GR
LEE011/Ribociclib; 0.03162 µM
  GR value: 0.762 GR
LEE011/Ribociclib; 0.1 µM
  GR value: 0.673 GR
LEE011/Ribociclib; 0.3162 µM
  GR value: 0.617 GR
LEE011/Ribociclib; 1 µM
  GR value: 0.569 GR
LEE011/Ribociclib; 3.162 µM
  GR value: 0.466 GR
LEE011/Ribociclib; 10 µM
  GR value: 0.215 GR
YKL-5-124; 0.001 µM
  GR value: 0.388 GR
YKL-5-124; 0.003162 µM
  GR value: 0.284 GR
YKL-5-124; 0.01 µM
  GR value: 0.2 GR
YKL-5-124; 0.03162 µM
  GR value: 0.144 GR
YKL-5-124; 0.1 µM
  GR value: 0.101 GR

— the supplement of paper PMC9663587
